Measurements taken from PMC9873282, “Design, synthesis and evaluation of quinoline-O-carbamate derivatives as multifunctional agents for the treatment of Alzheimer’s disease” (Journal of Enzyme Inhibition and Medicinal Chemistry, 2023).

Assays:
NO = NO release in LPS-stimulated BV-2 cells (Griess method); type: cell-based; conditions: 1 µg/mL LPS 24 h
Description: (§1) Firstly, the cytotoxicity of compounds 3a, 3c, 3e, 3f, 3k, 3m and 3n were tested using CCK8 assay.
(§2) BV-2 cells (2 × 10^5 cells/well) were seeded in a 24-well cell culture plates. The cells were divided into blank control group, model group (1 µg/mL LPS), LPS + 2 µM compound group, LPS + 1 µM compound group. Each drug group was pre-treated with corresponding concentration of drug solution for 8 h. After 8 h, the culture medium was aspirated out. Except for the blank control group, which was added with DMEM medium, the other groups were stimulated with 1 µg/mL LPS for 24 h. Then cell supernatant was aspirated and centrifuged at 3000 rpm for 3 min. The content of NO in cell culture supernatant was determined by Griess method, and the levels of cytokines IL-6 and IL-1β in cell culture supernatant were determined by IL-6 ELISA kit and IL-1β ELISA kit, respectively.

PC12 cells = experiment: Cytotoxicity on PC12 cells; type: cell-based; conditions: at concentration below 40 µM
Description: (§3) The neuroprotective effect of compounds 3a, 3c, 3e, 3f, 3k, 3m, and 3n on Aβ25–35-induced PC12 cells injury were evaluated using CCK-8 assay. […] Furthermore, as shown in Figure 12(B), when PC12 cells were exposed to 25 µM Aβ25-35, the cell viability sharply declined to 57.3% (p < 0.01) compared with untreated group.
(§4) The PC12 cells during the logarithmic growth phase were digested and centrifuged with pancreatic enzyme solution, the cells were resuspended by adding the prepared media solution, and piped evenly with a pipette to seed in a 96-well cell culture plate (cell concentration adjusted to 2.0 × 10^4 cell·mL^−1). Each well was added 100 µL complete medium was added to each well and incubated at 37 °C and 5% CO2 for 24 h.

eeAChE = target: T1, eeAChE (Electrophorus electricus, UniProt O42275); experiment: biochemical; design: species or system electric eel
T1 construct: eeAChE, from the electric eel; purchased Sigma Aldrich; host or cells: electric eel (natural source)
T1 sequence (O42275 24-633): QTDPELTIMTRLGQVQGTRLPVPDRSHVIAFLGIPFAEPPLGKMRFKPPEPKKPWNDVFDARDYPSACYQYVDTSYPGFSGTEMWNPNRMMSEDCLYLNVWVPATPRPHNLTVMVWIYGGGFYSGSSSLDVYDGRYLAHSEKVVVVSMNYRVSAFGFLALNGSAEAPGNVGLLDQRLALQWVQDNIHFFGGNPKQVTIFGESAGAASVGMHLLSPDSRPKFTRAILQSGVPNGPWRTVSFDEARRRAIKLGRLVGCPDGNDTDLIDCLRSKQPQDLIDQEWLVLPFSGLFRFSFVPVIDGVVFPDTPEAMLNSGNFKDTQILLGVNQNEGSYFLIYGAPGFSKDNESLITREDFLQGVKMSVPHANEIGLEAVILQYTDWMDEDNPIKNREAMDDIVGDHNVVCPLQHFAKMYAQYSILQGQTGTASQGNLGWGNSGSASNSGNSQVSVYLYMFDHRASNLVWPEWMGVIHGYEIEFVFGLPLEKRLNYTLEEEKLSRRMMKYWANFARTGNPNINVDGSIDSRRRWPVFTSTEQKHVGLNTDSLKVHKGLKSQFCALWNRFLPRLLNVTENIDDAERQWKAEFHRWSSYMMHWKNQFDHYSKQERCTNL
Description: (§5) The inhibitory activities of the synthesised compounds against eeAChE (from electric eel) and eqBuChE (from equine serum) were tested by the modified Ellman’s method[26]^,[27]. […] The determination of AChE and BuChE inhibitory potency of the synthesised compounds were evaluated by Ellman assay, the detailed procedure referred to our previous work[26]^,[27].

[1] = tested on: Aβ25-35-induced PC12 cells injury; experiment: Neuroprotective effect on Aβ25-35-induced PC12 cells injury (CCK-8); type: cell-based; conditions: 25 µM Aβ25-35; model cell viability 57.3%
Description: as §3
• Preparation of Aβ25-35 aggregation. Aβ25-35 was purchased from sigma. 1 mg Aβ25-35 was dissolved in 943 µL of sterilised deionised water to obtain 1 mM stock solution, aliquoted, –20 °C preservation. Removing the appropriate volume in a 48-well plate and incubated in a 37 °C incubator for two days to allow its ageing to accumulate and produce neurotoxicity. After aggregation was completed, the solution was diluted with PBS to get 25 µM solution of Aβ25-35 aggregation. • Neuroprotective effects of compounds on Aβ25-35-induced PC12 cells injury
as §4
After incubation for 24 h, PC12 cells were divided into blank group, control group, Aβ25-35 model group and tested compounds group (5, 10, 20 µM). Then the original medium was discarded, and 100 µL new complete medium were added to PC12 cells, and the tested compounds group was added to 100 µL complete medium containing different concentrations (5, 10, and 20 µM) of tested compounds, incubated for 2 h at 37 °C, 5% CO2 conditions. After incubation for 2 h, 10 µL Aβ25-35 solution was added to the tested compounds groups and model group (the final concentration of Aβ25-35 was 25 µM), and incubated for 24 h at 37 °C, 5% CO2 conditions, 10 µL CCK-8 was added to each well and further incubated for 1 h at 37 °C and 5% CO2. Finally, the OD value was measured at 450 nm using a microplate reader, and each concentration set three wells. The cell survival rate (%) was determined according to the following formula: cell viability (%) = {(ODdrug−ODblank)}/{(ODcontrol−ODblank)}.

hBuChE = target: T2, hBuChE (Homo sapiens, UniProt P06276); experiment: biochemical
T2 construct: hBuChE, human serum BuChE; purchased Sigma Aldrich; host or cells: human serum (natural source)
T2 sequence (P06276 29-602): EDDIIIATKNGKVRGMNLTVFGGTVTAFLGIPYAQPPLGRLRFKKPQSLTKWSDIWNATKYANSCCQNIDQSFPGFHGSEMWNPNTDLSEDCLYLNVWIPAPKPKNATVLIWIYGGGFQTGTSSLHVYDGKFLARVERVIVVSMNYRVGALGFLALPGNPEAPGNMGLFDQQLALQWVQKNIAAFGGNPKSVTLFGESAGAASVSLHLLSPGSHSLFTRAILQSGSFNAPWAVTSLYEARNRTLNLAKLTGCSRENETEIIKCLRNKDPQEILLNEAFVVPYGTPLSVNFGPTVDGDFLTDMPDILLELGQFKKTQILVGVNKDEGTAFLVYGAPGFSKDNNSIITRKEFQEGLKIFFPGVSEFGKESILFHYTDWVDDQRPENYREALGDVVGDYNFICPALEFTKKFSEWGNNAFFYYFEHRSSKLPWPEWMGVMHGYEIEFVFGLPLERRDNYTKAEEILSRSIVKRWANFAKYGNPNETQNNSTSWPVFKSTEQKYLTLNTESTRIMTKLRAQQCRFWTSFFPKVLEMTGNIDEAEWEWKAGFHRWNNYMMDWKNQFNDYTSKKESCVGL
Description: (§6) Acetylcholinesterase (eeAChE, from the electric eel; hAChE, from human erythrocytes AChE), butyrylcholinesterase (eqBuChE, from equine serum; hBuChE, human serum BuChE), 5,5′-dithiobis-2-nitrobenzoic acid (Ellman’s reagent, DTNB), acetylthiocholine chloride (ATC), and butyrylthiocholine chloride (BTC) were purchased form Sigma Aldrich. The determination of AChE and BuChE inhibitory potency of the synthesised compounds were evaluated by Ellman assay, the detailed procedure referred to our previous work[26]^,[27].

hAChE = target: T3, hAChE (Homo sapiens, UniProt P22303); experiment: biochemical
T3 construct: hAChE, from human erythrocytes AChE; purchased Sigma Aldrich; host or cells: human erythrocytes (natural source)
T3 sequence (P22303 32-617 isoform P22303-2 limits assumed): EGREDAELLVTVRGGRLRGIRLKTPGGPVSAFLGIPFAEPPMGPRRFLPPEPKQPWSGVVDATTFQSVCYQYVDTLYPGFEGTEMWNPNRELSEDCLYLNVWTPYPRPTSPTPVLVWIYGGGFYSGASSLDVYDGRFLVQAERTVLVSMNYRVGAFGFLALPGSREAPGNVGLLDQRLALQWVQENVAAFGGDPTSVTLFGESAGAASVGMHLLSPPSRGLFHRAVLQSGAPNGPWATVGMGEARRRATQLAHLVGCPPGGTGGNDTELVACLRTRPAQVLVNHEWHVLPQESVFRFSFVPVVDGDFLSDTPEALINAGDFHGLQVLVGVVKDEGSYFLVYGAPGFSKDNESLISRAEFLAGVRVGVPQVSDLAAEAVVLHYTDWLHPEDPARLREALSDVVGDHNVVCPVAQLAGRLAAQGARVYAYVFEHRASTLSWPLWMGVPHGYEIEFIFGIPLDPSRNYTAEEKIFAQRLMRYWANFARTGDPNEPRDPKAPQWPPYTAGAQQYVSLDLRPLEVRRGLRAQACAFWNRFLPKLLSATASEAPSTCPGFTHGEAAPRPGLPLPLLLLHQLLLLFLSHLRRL
Description: as §6

IL-1β = IL-1β production in LPS-stimulated BV-2 cells (ELISA); type: cell-based; conditions: 1 µg/mL LPS 24 h
Description: as §1, §2

BV-2 cells = experiment: Cytotoxicity on BV-2 cells (CCK8 assay); type: cell-based; conditions: compounds at 2 µM
Description: as §1
BV-2 cells were cultured in DMEM containing 10% foetal bovine serum, 100 U/mL penicillin, 100 U/mL streptomycin, and 1% nonessential amino acid at 37 °C with 5% CO2.
BV-2 cells in logarithmic growth stage were digested and centrifuged, and then resuspended in DMEM medium containing 1% penicillin-streptomycin and 10% foetal bovine serum. The cells was adjusted to 1.2 × 10^4 cells/well, and then seeded evenly in 96-well cell culture plates. The cells were incubated for 36 h at 37 °C with 5% CO2. After incubation, the cells were added to different concentrations (10 and 2 µM) of tested compounds, and incubated for 24 h at 37 °C with 5% CO2. Then, 10 µL CCK-8 solution was added to each well, and incubated for another 1 h at 37 °C with 5% CO2. The OD values were tested at […]. The cell viability (%) = {(ODdrug−ODblank)}/{(ODcontrol−ODblank)} × 100%.

IL-6 = IL-6 production in LPS-stimulated BV-2 cells (ELISA); type: cell-based; conditions: 1 µM and 2 µM; 1 µg/mL LPS 24 h
Description: as §1, §2

eqBuChE = target: T4, eqBuChE (Equus caballus, UniProt P81908); experiment: biochemical; design: species or system equine
T4 construct: eqBuChE, from equine serum; purchased Sigma Aldrich; host or cells: equine serum (natural source)
T4 sequence (P81908 whole entry): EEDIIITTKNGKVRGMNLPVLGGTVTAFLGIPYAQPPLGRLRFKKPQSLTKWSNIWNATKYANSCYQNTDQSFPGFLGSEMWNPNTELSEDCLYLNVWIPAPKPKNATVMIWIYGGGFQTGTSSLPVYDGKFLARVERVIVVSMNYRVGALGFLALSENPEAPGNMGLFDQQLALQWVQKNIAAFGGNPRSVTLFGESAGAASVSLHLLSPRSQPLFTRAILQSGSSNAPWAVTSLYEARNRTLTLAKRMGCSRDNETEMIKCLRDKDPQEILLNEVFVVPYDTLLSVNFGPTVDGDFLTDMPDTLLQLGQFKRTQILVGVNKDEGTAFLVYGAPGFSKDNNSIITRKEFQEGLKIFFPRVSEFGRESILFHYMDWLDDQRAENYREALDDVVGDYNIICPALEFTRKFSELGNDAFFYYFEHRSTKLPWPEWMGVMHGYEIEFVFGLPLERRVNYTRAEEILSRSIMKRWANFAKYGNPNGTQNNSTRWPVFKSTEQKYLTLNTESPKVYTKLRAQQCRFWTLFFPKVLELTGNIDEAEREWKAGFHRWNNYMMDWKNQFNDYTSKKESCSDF
Description: as §5

CN(C)C(=O)Oc1cccc2ncccc12 [Compound 3e, Quinolin-5-yl dimethylcarbamate]
release volume of NO (NO): significantly decreased | cytotoxicity on PC12 cells (PC12 cells): did not show any cytotoxicity | IC50 (eeAChE): 4.5 ± 0.04 µM | neuroprotective effect on Aβ25-35-induced PC12 cells injury [1]: remarkable neuroprotective effects at 5 and 10 µM | IC50 (hBuChE; IC50 ± SD hBuChE, from human serum): 3.7 ± 0.05 µM | SI = IC50 (AChE)/IC50 (BuChE) (hBuChE; hAChE/hBuChE): 2.8 | IC50 (hAChE): 10.4 ± 0.21 µM | levels of IL-1β compared with model group (IL-1β): significantly decreased | cell viability of BV-2 cells (BV-2 cells): did not show obvious change | levels of IL-6 compared with model group (IL-6): significantly decreased | IC50 (eqBuChE; IC50 ± SD eqBuChE, BuChE from equine serum): 0.94 ± 0.07 µM | SI = IC50 (AChE)/IC50 (BuChE) (eqBuChE; eeAChE/eqBuChE): 4.8
